# Test results taken from PMC7044277 (Nature Communications, 2020).
# Several values for one entry are separate records, joined by “and”; a condition that tells them apart may be missing. Identical values can stand only once. Like-named read-outs stand apart in the source and are kept apart here.
# What was measured:
# 320 non-olfactory GPCRs = assay type: cell-based; set-up: GPCRome screening signal at PTGIR / GPCRome screening signal at PTH1R / GPCRome screening signal at PTH2R / GPCRome screening signal at QRFP / GPCRome screening signal at RXFP2 / GPCRome screening signal at RXFP3 / GPCRome screening signal at RXFP4 / GPCRome screening signal at S1PR2 / GPCRome screening signal at S1PR3 / GPCRome screening signal at S1PR4 / GPCRome screening signal at S1PR5 / GPCRome screening signal at SCTR / GPCRome screening signal at SSTR2 / GPCRome screening signal at SSSTR / GPCRome screening signal at SSTR4 / GPCRome screening signal at SSTR5 / GPCRome screening signal at SUCNR1 / GPCRome screening signal at TA1 / GPCRome screening signal at TAAR2 / GPCRome screening signal at TAAR5 / GPCRome screening signal at TAAR6 / GPCRome screening signal at TAAR8 / GPCRome screening signal at TACR1 / GPCRome screening signal at TACR2 / GPCRome screening signal at TACR3 / GPCRome screening signal at TBXA2R / GPCRome screening signal at TSHR / GPCRome screening signal at UTS2R / GPCRome screening signal at VIPR2 / GPCRome screening signal at GPR68 no V2 Tail / GPCRome screening signal at GRM2 / GPCRome screening signal at GRM3: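 fold over basal response of each receptor without drug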; settings: for GPCRome agonism screen response: replicate values, Fig_4g;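 on GPCRome agonism screen response: fold over basal response of each receptor without drug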
# DRD2 F1103.28L [1] = target: T1, DRD2 F1103.28L (Homo sapiens, UniProt P14416, F110L); experiment: Gαi/o-mediated cAMP inhibition (GloSensor), mutant; assay type: cell-based
# T1 construct: expressed in transfected cells; host or cells: HEK293T (ATCC CRL-11268)
# T1 sequence (P14416 whole entry F110L): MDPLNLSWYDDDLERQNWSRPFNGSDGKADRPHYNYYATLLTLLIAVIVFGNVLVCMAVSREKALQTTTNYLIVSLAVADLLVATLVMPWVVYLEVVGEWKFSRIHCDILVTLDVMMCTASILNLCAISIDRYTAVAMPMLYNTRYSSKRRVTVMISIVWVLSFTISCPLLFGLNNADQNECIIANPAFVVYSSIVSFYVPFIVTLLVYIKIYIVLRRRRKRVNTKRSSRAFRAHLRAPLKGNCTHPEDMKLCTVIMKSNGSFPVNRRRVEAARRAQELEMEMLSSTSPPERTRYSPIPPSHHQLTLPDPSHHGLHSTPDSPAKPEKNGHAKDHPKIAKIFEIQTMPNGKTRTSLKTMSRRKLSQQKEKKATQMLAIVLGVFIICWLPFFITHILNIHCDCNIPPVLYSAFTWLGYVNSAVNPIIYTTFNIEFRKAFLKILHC
# DRD2 F1103.28L [2] = target: T1, DRD2 F1103.28L; experiment: β-arrestin2 recruitment (Tango), mutant; assay type: cell-based
# [3] = target: DRD2 (D2 long receptor) wild-type (Homo sapiens, UniProt P14416); experiment: Radioligand competition binding, [3H]-N-methylspiperone, HEK293T membranes; settings: DRD2; [3H]-methylspiperone (0.8-1.0 nM); read-out: Ki
# Chain of DRD2 (D2 long receptor) wild-type (P14416 whole entry): as the sequence (P14416 whole entry F110L) above, with L110F counted along it
# DRD3 wild-type = DRD3 wild-type (Homo sapiens, UniProt P35462); experiment: Radioligand competition binding, [3H]-N-methylspiperone; settings: DRD3 wild-type; read-out: pKi ± SEM (converted)
# Chain of DRD3 wild-type (P35462 whole entry): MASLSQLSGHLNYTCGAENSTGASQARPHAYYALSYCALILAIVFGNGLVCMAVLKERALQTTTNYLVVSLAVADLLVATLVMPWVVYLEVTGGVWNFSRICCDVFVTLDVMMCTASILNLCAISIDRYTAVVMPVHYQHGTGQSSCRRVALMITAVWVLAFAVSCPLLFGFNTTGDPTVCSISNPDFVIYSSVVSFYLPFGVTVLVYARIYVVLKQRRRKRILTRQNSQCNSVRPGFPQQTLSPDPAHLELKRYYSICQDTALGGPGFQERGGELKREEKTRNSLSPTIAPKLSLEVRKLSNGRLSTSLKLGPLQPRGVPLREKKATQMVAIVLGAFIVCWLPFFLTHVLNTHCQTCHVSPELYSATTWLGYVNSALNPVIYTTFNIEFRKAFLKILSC
# DRD2 (D2 long receptor) = DRD2 (D2 long receptor) (Homo sapiens, UniProt P14416); experiment: β-arrestin2 recruitment (Tango), HTLA cells; assay type: cell-based; settings: for Response, Fig_S11c dose-response: individual replicates
# Chain of DRD2 (D2 long receptor) (P14416 whole entry): as the sequence (P14416 whole entry F110L) above, with L110F counted along it
# DRD2 F1103.28A = DRD2 F1103.28A (Homo sapiens, UniProt P14416, F110A); assay type: binding; set-up: expressed in transfected cells; host or cells: HEK293T (ATCC CRL-11268)
# Chain of DRD2 F1103.28A (P14416 whole entry F110A): as the sequence (P14416 whole entry F110L) above, with L110A counted along it
compound,measurement,setting,value
CCOc1ccccc1CCC(C)NCC1(O)CCCCC1.Cl (racemic) [Fig_5f],GPCRome screening signal at GPR68 no V2 Tail,"320 non-olfactory GPCRs; receptor GPR68 no V2 Tail, Fig_5f, single replicate values",1.613 and 0.9285 and 0.7993 and 0.365
same,GPCRome screening signal at QRFP,"320 non-olfactory GPCRs; receptor QRFP, Fig_5f, single replicate values",1.818 and 1.297 and 0.5847 and 0.9504
same,GPCRome screening signal at SSSTR,"320 non-olfactory GPCRs; receptor SSSTR, Fig_5f, single replicate values",1.07 and 0.3317 and 0.4095 and 0.9006
CCOc1cccc2cc(C(C)NCC3(O)CCCCC3)oc12 (centres unmarked) [O4LE6],EC50,DRD2 F1103.28L [1]; DRD2 F1103.28L (b138 head prints DRD2 F1063.28L),0.0113 ± 0.00227 µM
same,Emax,"DRD2 F1103.28L [1]; read-out: Emax relative to quinpirole response, DRD2 F1103.28L",61%
same,EC50,DRD2 F1103.28L [2],0.204 µM
same,Emax,DRD2 F1103.28L [2]; read-out: Emax relative to quinpirole response,4.32%
same,Ki,[3],1.91 µM and 1.9 µM
same,Ki,DRD3 wild-type,0.224 µM
same,GPCRome agonism screen response,320 non-olfactory GPCRs; receptor LTB4R2B,0.6938 and 0.9232 and 0.5075
same,GPCRome agonism screen response,320 non-olfactory GPCRs; receptor NPS,0.4686 and 1.378 and 0.7119 and 0.6607
same,GPCRome agonism screen response,320 non-olfactory GPCRs; receptor PK1,0.8997 and 0.9125 and 0.8846 and 0.857
same,GPCRome agonism screen response,320 non-olfactory GPCRs; receptor PRRP,0.431 and 1.1359 and 1.866 and 0.5549
same,GPCRome agonism screen response,320 non-olfactory GPCRs; receptor QRFP,0.8017 and 1.022 and 0.9768 and 1
same,GPCRome agonism screen response,320 non-olfactory GPCRs; receptor SSSTR,0.8501 and 0.9752 and 2.465 and 0.6314
same,EC50,"DRD2 (D2 long receptor); DRD2, β-arrestin2 recruitment (Tango), read-out: EC50 ± SEM",0.0432 ± 0.0123 µM
same,"response, Fig_S11c dose-response source data","DRD2 (D2 long receptor); Fig_S11c, Log[Drug] -5, replicate values",112.633 and 105.275 and 98.5438 and 105.099 and 112.565
same,"response, Fig_S11e dose-response source data","DRD2 (D2 long receptor); Log[Drug] -6.52, replicate values",78.7922
same,"response, Fig_S11e dose-response source data","DRD2 (D2 long receptor); Log[Drug] -7, replicate values",72.0078 and 74.6368 and 66.9645 and 59.2359 and 63.6719 and 58.7266 and 59.326 and 73.941 and 65.8379
same,"response, Fig_S11e dose-response source data","DRD2 (D2 long receptor); Log[Drug] -7.52, replicate values",37.8418 and 44.9592 and 58.6118 and 43.0054 and 55.0074 and 48.586 and 48.419 and 72.5528 and 64.0624
same,"response, Fig_S11e dose-response source data","DRD2 (D2 long receptor); Log[Drug] -8, replicate values",15.3268 and 15.1148 and 16.7449 and 27.4037 and 26.6311 and 23.8074 and 19.9269 and 24.9446 and 21.2413
same,"response, Fig_S11e dose-response source data","DRD2 (D2 long receptor); Log[Drug] -8.52, replicate values",4.375 and 3.995 and 5.741 and 6.567 and 6.611 and 6.201 and 5.912 and 5.884 and 4.408
same,"response, Fig_S11e dose-response source data","DRD2 (D2 long receptor); Log[Drug] -9, replicate values",3.657 and 3.173 and 3.675 and 2.9749 and 3.073 and 3.47 and 2.665 and 3.951 and 5.063
same,"response, Fig_S11e dose-response source data","DRD2 (D2 long receptor); Log[Drug] -9.52, replicate values",2.783 and 2.8126 and 2.809 and 2.846 and 2.583 and 2.72 and 1.765 and 1.2028 and 2.471
same,"response, Fig_S11e dose-response source data","DRD2 (D2 long receptor); Log[Drug] -10, replicate values",3.027 and 2.494 and 2.707 and 2.723 and 2.793 and 2.57 and 1.765 and 1.586 and 1.567
same,"response, Fig_S11e dose-response source data","DRD2 (D2 long receptor); Log[Drug] -10.52, replicate values",2.869 and 2.577 and 2.7076 and 2.741 and 2.285 and 2.767 and 1.576 and 1.95 and 2.499
same,"response, Fig_S11e dose-response source data","DRD2 (D2 long receptor); Log[Drug] -11, replicate values",2.286 and 2.31 and 2.497 and 2.358 and 2.303 and 2.397 and 3.984 and 1.567 and 2.499
same,"response, Fig_S11e dose-response source data","DRD2 (D2 long receptor); Log[Drug] -11.52, replicate values",2.417 and 3.403 and 2.6551 and 2.344 and 2.523 and 2.357 and 1.752 and 2.8723 and 2.669
same,"response, Fig_S11e dose-response source data","DRD2 (D2 long receptor); Log[Drug] -12, replicate values",2.236 and 2.366 and 2.369 and 2.676 and 2.167 and 2.127 and 2.148 and 1.023 and 3.799
same,Emax,"DRD2 (D2 long receptor); HTLA, read-out: Emax relative to quinpirole response, DRD2, Tango",105%
same,"β-arrestin2 recruitment response at DRD2 (source data, replicate values)",DRD2 (D2 long receptor); Log[Drug] -6.52,78.7922
same,"Response, Fig_S11c dose-response",DRD2 (D2 long receptor); Log[Drug] -6.52,78.7922
same,"β-arrestin2 recruitment response at DRD2 (source data, replicate values)",DRD2 (D2 long receptor); Log[Drug] -7,72.0078 and 74.6368 and 66.9645 and 59.2359 and 63.6719 and 58.7266 and 59.326 and 73.941 and 65.8379
same,"Response, Fig_S11c dose-response",DRD2 (D2 long receptor); Log[Drug] -7,72.0078 and 74.6368 and 66.9645 and 59.2359 and 63.6719 and 58.7266 and 59.326 and 73.941 and 65.8379
same,"β-arrestin2 recruitment response at DRD2 (source data, replicate values)",DRD2 (D2 long receptor); Log[Drug] -7.52,37.8418 and 44.9592 and 58.6118 and 43.0054 and 55.0074 and 48.586 and 48.419 and 72.5528 and 64.0624
same,"Response, Fig_S11c dose-response",DRD2 (D2 long receptor); Log[Drug] -7.52,37.8418 and 44.9592 and 58.6118 and 43.0054 and 55.0074 and 48.586 and 48.419 and 72.5528 and 64.0624
same,"β-arrestin2 recruitment response at DRD2 (source data, replicate values)",DRD2 (D2 long receptor); Log[Drug] -8,15.3268 and 15.1148 and 16.7449 and 27.4037 and 26.6311 and 23.8074 and 19.9269 and 24.9446 and 21.2413
same,"Response, Fig_S11c dose-response",DRD2 (D2 long receptor); Log[Drug] -8,15.3268 and 15.1148 and 16.7449 and 27.4037 and 26.6311 and 23.8074 and 19.9269 and 24.9446 and 21.2413
same,"β-arrestin2 recruitment response at DRD2 (source data, replicate values)",DRD2 (D2 long receptor); Log[Drug] -8.52,4.375 and 3.995 and 5.741 and 6.567 and 6.611 and 6.201 and 5.912 and 5.884 and 4.408
same,"Response, Fig_S11c dose-response",DRD2 (D2 long receptor); Log[Drug] -8.52,4.375 and 3.995 and 5.741 and 6.567 and 6.611 and 6.201 and 5.912 and 5.884 and 4.408
same,"β-arrestin2 recruitment response at DRD2 (source data, replicate values)",DRD2 (D2 long receptor); Log[Drug] -9,3.657 and 3.173 and 3.675 and 2.9749 and 3.073 and 3.47 and 2.665 and 3.951 and 5.063
same,"Response, Fig_S11c dose-response",DRD2 (D2 long receptor); Log[Drug] -9,3.657 and 3.173 and 3.675 and 2.9749 and 3.073 and 3.47 and 2.665 and 3.951 and 5.063
same,"β-arrestin2 recruitment response at DRD2 (source data, replicate values)",DRD2 (D2 long receptor); Log[Drug] -9.52,2.783 and 2.8126 and 2.809 and 2.846 and 2.583 and 2.72 and 1.765 and 1.2028 and 2.471
same,"Response, Fig_S11c dose-response",DRD2 (D2 long receptor); Log[Drug] -9.52,2.783 and 2.8126 and 2.809 and 2.846 and 2.583 and 2.72 and 1.765 and 1.2028 and 2.471
same,"β-arrestin2 recruitment response at DRD2 (source data, replicate values)",DRD2 (D2 long receptor); Log[Drug] -10,3.027 and 2.494 and 2.707 and 2.723 and 2.793 and 2.57 and 1.765 and 1.586 and 1.567
same,"Response, Fig_S11c dose-response",DRD2 (D2 long receptor); Log[Drug] -10,3.027 and 2.494 and 2.707 and 2.723 and 2.793 and 2.57 and 1.765 and 1.586 and 1.567
same,"β-arrestin2 recruitment response at DRD2 (source data, replicate values)",DRD2 (D2 long receptor); Log[Drug] -10.52,2.869 and 2.577 and 2.7076 and 2.741 and 2.285 and 2.767 and 1.576 and 1.95 and 2.499
same,"Response, Fig_S11c dose-response",DRD2 (D2 long receptor); Log[Drug] -10.52,2.869 and 2.577 and 2.7076 and 2.741 and 2.285 and 2.767 and 1.576 and 1.95 and 2.499
same,"β-arrestin2 recruitment response at DRD2 (source data, replicate values)",DRD2 (D2 long receptor); Log[Drug] -11,2.286 and 2.31 and 2.497 and 2.358 and 2.303 and 2.397 and 3.984 and 1.567 and 2.499
same,"Response, Fig_S11c dose-response",DRD2 (D2 long receptor); Log[Drug] -11,2.286 and 2.31 and 2.497 and 2.358 and 2.303 and 2.397 and 3.984 and 1.567 and 2.499
same,"β-arrestin2 recruitment response at DRD2 (source data, replicate values)",DRD2 (D2 long receptor); Log[Drug] -11.52,2.417 and 3.403 and 2.6551 and 2.344 and 2.523 and 2.357 and 1.752 and 2.8723 and 2.669
same,"Response, Fig_S11c dose-response",DRD2 (D2 long receptor); Log[Drug] -11.52,2.417 and 3.403 and 2.6551 and 2.344 and 2.523 and 2.357 and 1.752 and 2.8723 and 2.669
same,"β-arrestin2 recruitment response at DRD2 (source data, replicate values)",DRD2 (D2 long receptor); Log[Drug] -12,2.236 and 2.366 and 2.369 and 2.676 and 2.167 and 2.127 and 2.148 and 1.023 and 3.799
same,"Response, Fig_S11c dose-response",DRD2 (D2 long receptor); Log[Drug] -12,2.236 and 2.366 and 2.369 and 2.676 and 2.167 and 2.127 and 2.148 and 1.023 and 3.799
same,Ki,"DRD2 F1103.28A; DRD2 F1103.28A, read-out: Ki",0.72 µM
same,"affinity increase (binding enhanced), mutant vs wild type",DRD2 F1103.28A; DRD2 Phe110^3.28Ala vs wild-type DRD2,2.64 fold
